Calls of active or inactive are those of the source. The rule behind the calls is not given here.
What was measured:
[1] = test system: Human immunodeficiency virus 1; test: Antiviral activity against HIV-1 3B infected in human MT4 cells assessed as protection against virus-induced cytopathic effect by MTT assay; type: functional, organism-based; conditions: Human immunodeficiency virus 1, 3B
[2] = test system: MT4; test: Cytotoxicity against mock infected human MT4 cells by MTT assay; type: toxicity, cell-based
[3] = in vitro; conditions: human, liver microsomes
[4] = Metabolic stability in human plasma assessed as parent compound remaining measured after 120 mins by LC-MS/MS analysis; type: ADME, cell-free; conditions: 2 h
[5] = test system: Human immunodeficiency virus 1; test: Antiviral activity against HIV-1 NL4-3 Env-deficient pseudotype virus infected in U87/CD4/CCR5 cells assessed as reduction in viral infection in early stage measured after 48 hrs by luciferase activity based single-round infection assay; type: functional, organism-based
[6] = test system: Human immunodeficiency virus 1; test: Antiviral activity against HIV-1 NL4-3 Env-deficient pseudotype virus infected in U87/CD4/CCR5 cells assessed as reduction in viral infection in late stage measured after 48 hrs by luciferase activity based single-round infection assay; type: functional, organism-based

| SMILES | EC50 [1] [µM] | CC50 [2] [µM] | other results |
| --- | --- | --- | --- |
| Cc1ccc(NC(=O)c2cccc(C(=O)N[C@@H](Cc3ccccc3)C(=O)N(C)c3ccc4scnc4c3)c2)cc1 | 41.1 | > 228 | – |
| CN(C(=O)[C@H](Cc1ccccc1)NC(=O)c1cccc(C(=O)Nc2ccccc2N)c1)c1ccc2scnc2c1 | > 25.4 | 25.4 | – |
| O=C(O)Cc1ccccc1Nc1c(Cl)cccc1Cl [DICLOFENAC] | – | – | microsomal CLint [3]: 372 µL/min/mg |
| CN(C(=O)[C@H](Cc1ccccc1)NC(=O)c1cccc(C(=O)Nc2ccccc2F)c1)c1ccc2scnc2c1 | 21.9 | 66.4 | – |
| CN(C(=O)[C@H](Cc1ccccc1)NC(=O)c1cccc(C(=O)Nc2ccc(C(F)(F)F)cc2)c1)c1ccc2scnc2c1 | ≥ 39.5 | 88.2 | – |
| C[C@]12CC[C@H]3[C@@H](CCC4=CC(=O)CC[C@@]43C)[C@@H]1CC[C@@H]2O [TESTOSTERONE] | – | – | microsomal CLint [3]: 82.8 µL/min/mg |
| CN(C(=O)[C@H](Cc1ccccc1)NC(=O)c1cccc(C(=O)Nc2cccc(F)c2)c1)c1ccc2scnc2c1 | > 226 | > 226 | – |
| CN(C(=O)[C@H](Cc1ccccc1)NC(=O)c1cccc(C(=O)Nc2ccc(N)cc2)c1)c1ccc2scnc2c1 | 3.57 | – | Stability [4]: Stable; Activity [5]: Active; Activity [6]: Active |
| CN(C(=O)[C@H](Cc1ccccc1)NC(=O)c1cccc(C(=O)N2CCN(C(=O)OC(C)(C)C)CC2)c1)c1ccc2scnc2c1 | 13.5 | 93.9 | – |
| CN(C(=O)[C@H](Cc1ccccc1)NC(=O)c1cccc(C(=O)Nc2ccc(NC(=O)OC(C)(C)C)cc2)c1)c1ccc2scnc2c1 | > 2.23 | 2.23 | – |
| CN(C(=O)[C@H](Cc1ccccc1)NC(=O)c1cccc(C(=O)Nc2ccncc2)c1)c1ccc2scnc2c1 | ≥ 41.4 | 37.6 | – |
| CN(C(=O)[C@H](Cc1ccccc1)NC(=O)c1cccc(C(=O)NC2CCN(C(=O)OC(C)(C)C)CC2)c1)c1ccc2scnc2c1 | > 29.3 | 29.3 | – |
| COc1ccc(NC(=O)c2cccc(C(=O)N[C@@H](Cc3ccccc3)C(=O)N(C)c3ccc4scnc4c3)c2)cc1 | ≥ 205 | > 222 | – |
| CN(C(=O)[C@H](Cc1ccccc1)NC(=O)c1cccc(C(=O)Nc2ccc(C#N)cc2)c1)c1ccc2scnc2c1 | 13.2 | > 224 | – |
| CN(C(=O)[C@H](Cc1ccccc1)NC(=O)c1cccc(C(=O)Nc2ccccc2NC(=O)OC(C)(C)C)c1)c1ccc2scnc2c1 | – | > 193 | – |
| COCCNC(=O)c1cccc(C(=O)N[C@@H](Cc2ccccc2)C(=O)N(C)c2ccc3scnc3c2)c1 | 15.7 | 203 | – |
| CN(C(=O)[C@H](Cc1ccccc1)NC(=O)c1cccc(C(=O)Nc2ccc(F)cc2)c1)c1ccc2scnc2c1 | 31.8 | 54 | – |
| CN(C(=O)[C@H](Cc1ccccc1)NC(=O)c1cccc(C(=O)Nc2cccc(NC(=O)OC(C)(C)C)c2)c1)c1ccc2scnc2c1 | > 193 | > 193 | – |
| C#CCNC(=O)c1cccc(C(=O)N[C@@H](Cc2ccccc2)C(=O)N(C)c2ccc3scnc3c2)c1 | 5.02 | – | Stability [4]: Stable |
| CN(C(=O)[C@H](Cc1ccccc1)NC(=O)c1cccc(C(=O)Nc2ccc(OC(F)(F)F)cc2)c1)c1ccc2scnc2c1 | 34.9 | 118 | – |
| CN(C(=O)[C@H](Cc1ccccc1)NC(=O)c1cccc(C(=O)Nc2cccc(N)c2)c1)c1ccc2scnc2c1 | 23.7 | 134 | – |
| CN(C(=O)[C@H](Cc1ccccc1)NC(=O)c1cccc(C(=O)Nc2ccc(Br)cc2)c1)c1ccc2scnc2c1 | ≥ 186 | > 204 | – |
| CN(C(=O)[C@H](Cc1ccccc1)NC(=O)c1cccc(C(=O)Nc2ccc(Cl)cc2)c1)c1ccc2scnc2c1 | > 220 | > 220 | – |
| CN(C(=O)[C@H](Cc1ccccc1)NC(=O)c1cccc(C(=O)Nc2ccccc2)c1)c1ccc2scnc2c1 | 22.4 | > 234 | – |
| CC(=O)c1ccc(NC(=O)c2cccc(C(=O)N[C@@H](Cc3ccccc3)C(=O)N(C)c3ccc4scnc4c3)c2)cc1 | > 165 | 165 | – |

Reference: ChEMBL document CHEMBL5131381, “Design, synthesis, and mechanistic investigations of phenylalanine derivatives containing a benzothiazole moiety as HIV-1 capsid inhibitors with improved metabolic stability” (Eur J Med Chem, 2022)
